Key:
Cannabinoid receptor 2 = Cannabinoid receptor 2 (Homo sapiens, UniProt P34972); experiment: Cannabinoid Receptor Binding Assay
Description: (§1) Membranes from HEK-293 cells transfected with the human recombinant CB1 receptor(Bmax=2.5pmol/mg protein) and human recombinant CB2 receptor (B max=4.7 pmol/mgprotein) were incubated with [3H]-CP-55,940 (0.14 nM / Kd = 0.18 nM and 0.084nM / Kd =0.31 nM respectively for CB1 and CB2 receptor) as the high affinity ligand and displaced with 10 μM WIN 55212-2 as the heterologous competitor for non specific binding (Ki values 9.2 nM and 2.1 nM respectively for CB1 and CB2 receptor). All compounds were tested following the procedure described by the manufacturer (Perkin Elmer, Italy). Displacement curves were generated by incubating drugs with [3H]-CP-55,940 for 90 minutes at 30 C. Ki values were calculated by applying the Cheng-Prusoff equation to the IC50 values (obtained by GraghPad) for the displacement of the bound radioligand by increasing concentrations of the testcompound. Data are means±SEM of at least n=3 experiments.

Cannabinoid receptor 1 = Cannabinoid receptor 1 (Homo sapiens, UniProt P21554); experiment: Cannabinoid Receptor Binding Assay
Sequence of Cannabinoid receptor 1 (P21554 whole entry): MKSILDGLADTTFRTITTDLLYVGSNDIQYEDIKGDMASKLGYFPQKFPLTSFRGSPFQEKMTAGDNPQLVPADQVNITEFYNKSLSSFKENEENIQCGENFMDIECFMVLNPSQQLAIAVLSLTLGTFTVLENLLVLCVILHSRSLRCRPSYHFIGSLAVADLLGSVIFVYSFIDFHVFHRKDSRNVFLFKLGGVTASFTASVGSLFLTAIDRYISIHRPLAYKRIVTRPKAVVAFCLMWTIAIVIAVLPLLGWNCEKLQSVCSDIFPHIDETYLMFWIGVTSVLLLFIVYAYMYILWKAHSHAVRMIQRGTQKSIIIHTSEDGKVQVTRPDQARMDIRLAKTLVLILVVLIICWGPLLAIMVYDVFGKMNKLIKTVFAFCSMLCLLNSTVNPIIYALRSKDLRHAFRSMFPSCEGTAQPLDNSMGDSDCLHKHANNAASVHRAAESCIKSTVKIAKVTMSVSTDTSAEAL
Description: as §1

Sequence of Cannabinoid receptor 2 (P34972 whole entry): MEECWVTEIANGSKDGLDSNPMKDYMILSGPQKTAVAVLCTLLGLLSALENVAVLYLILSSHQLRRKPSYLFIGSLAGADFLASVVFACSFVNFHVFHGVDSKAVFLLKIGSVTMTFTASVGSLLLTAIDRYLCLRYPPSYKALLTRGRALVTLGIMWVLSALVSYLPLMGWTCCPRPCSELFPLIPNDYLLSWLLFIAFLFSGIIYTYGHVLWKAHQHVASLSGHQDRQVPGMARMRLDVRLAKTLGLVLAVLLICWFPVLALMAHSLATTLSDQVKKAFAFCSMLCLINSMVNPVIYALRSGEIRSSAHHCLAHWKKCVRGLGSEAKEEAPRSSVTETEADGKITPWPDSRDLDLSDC

SMILES	IC50 (Cannabinoid receptor 2)	Ki (Cannabinoid receptor 2)	IC50 (Cannabinoid receptor 1)	Ki (Cannabinoid receptor 1)
CCC(C)(O)NC(=O)CCC(=O)Nc1cccc2ccccc12 (stereo not given) [N-(2-Hydroxybutan-2-yl)-2-(4-naphthalen-1-ylamino)-4-oxobutanamide (5a)]	> 10 µM	> 10 µM	> 10 µM	> 10 µM
CCOC(=O)CNC(=O)CCC(=O)/C=C/c1ccc(OCc2ccccc2)cc1 [(E)-Ethyl 2-(6-(4-(benzyloxy)phenyl)-4-oxohex-5-enamido)acetate (3k)]	> 10 µM	> 10 µM	> 10 µM	> 10 µM
CCOC(=O)CNC(=O)CCC(=O)Nc1cccc2ccccc12 [Ethyl 2-(4-(naphthalen-1-ylamino)-4-oxobutanamido)acetate (5b)]	> 10 µM	> 10 µM	> 10 µM	> 10 µM
CCC(C)(O)NC(=O)CCC(=O)/C=C/c1ccc(OCc2ccccc2)cc1 (stereo not given) [(E)-6-(4-(Benzyloxy)phenyl)-N-(2-hydroxybutan-2-yl)-4-oxohex-5-enamide (3j)]	> 10 µM	> 10 µM	> 10 µM	> 10 µM
O=C(/C=C/c1ccccc1)CCC(=O)NC(CO)(CO)CO [(E)-N-(1,3-Dihydroxy-2-(hydroxymethyl)propan-2-yl)-4-oxo-6-phenylhex-5-enamide (3b)]	> 10 µM	> 10 µM	> 10 µM	> 10 µM
Cc1ccc(/C=C/C(=O)CCC(=O)Nc2ccc(O)cc2)cc1 [(E)-N-(4-Hydroxyphenyl)-4-oxo-6-p-tolylhex-5-enamide (3f)]	> 10 µM	> 10 µM	> 10 µM	> 10 µM
CCOC(=O)CNC(=O)CCC(=O)/C=C/c1ccc(OC)c(OC)c1 [(E)-Ethyl 2-(6-(3,4-dimethoxyphenyl)-4-oxohex-5-enamido)acetate (3h)]	> 10 µM	> 10 µM	> 10 µM	> 10 µM
CC(=O)Nc1ccc(OC(=O)CCC(=O)/C=C/c2ccccc2)cc1 [(E)-4-Acetamidophenyl 4-oxo-6-phenylhex-5-enoate (3l)]	> 10 µM	> 10 µM	> 10 µM	> 10 µM
CC(=O)Nc1ccc(OC(=O)CCC(=O)Nc2cccc3ccccc23)cc1 [4-Acetamidophenyl 4-(naphthalen-1-ylamino)-4-oxobutanoate (5c)]	> 10 µM	> 10 µM	> 10 µM	> 10 µM

Results, then the molecule that gave them:

IC50 (Cannabinoid receptor 2)	Ki (Cannabinoid receptor 2)	IC50 (Cannabinoid receptor 1)	Ki (Cannabinoid receptor 1)	SMILES
> 10 µM	> 10 µM	> 10 µM	> 10 µM	CCC(C)(O)NC(=O)CCC(=O)/C=C/c1ccc(OC)c(OC)c1 (stereo not given) [(E)-6-(3,4-Dimethoxyphenyl)-N-(2-hydroxybutan-2-yl)-4-oxohex-5-enamide (3i)]
> 10 µM	> 10 µM	> 10 µM	> 10 µM	CCC(C)(O)NC(=O)CCC(=O)/C=C/c1ccc(C)cc1 (stereo not given) [(E)-N-(2-Hydroxybutan-2-yl)-4-oxo-6-p-tolylhex-5-enamide (3d)]
> 10 µM	> 10 µM	> 10 µM	> 10 µM	CCC(C)(O)NC(=O)CCC(=O)/C=C/c1ccc(N(C)C)cc1 (stereo not given) [(E)-6-[4-(Dimethylamino)phenyl]-N-(2-hydroxybutan-2yl)-4-oxohex-5-enamide (3g)]
> 10 µM	> 10 µM	> 10 µM	> 10 µM	Cc1ccc(/C=C/C(=O)CCC(=O)NC(CO)(CO)CO)cc1 [(E)-N-(1,3-Dihydroxy-2-(hydroxymethylpropan-2-yl)-4-oxo-6-p-tolylhex-5-enamide (3e)]
> 10 µM	> 10 µM	> 10 µM	> 10 µM	CCC(C)(O)NC(=O)CCC(=O)/C=C/c1ccccc1 (stereo not given) [(E)-N-(2-Hydroxybutan-2-yl)-4-oxo-6-phenylhex-5-enamide (3a)]
> 10 µM	> 10 µM	> 10 µM	> 10 µM	CCC(C)(O)NC(=O)CCC(=O)/C=C/c1ccc(-c2ccccc2)cc1 (stereo not given) [(E)-6-(Biphenyl-4-yl)-N-(2-hydroxybutan-2-yl)-4-oxohex-5-enamide (3m)]
